Reference: ChEMBL document CHEMBL5143645, “Synthesis of harmine-nitric oxide donor derivatives as potential antitumor agents” (Bioorg Med Chem Lett, 2022)
Calls of active or inactive are those of the source. The rule behind the calls is not given here.

Legend:
[1] = tested on: BGC-823; assay: Antiproliferative activity against human BGC-823 cells assessed as reduction in cell viability incubated for 72 hrs by CCK-8 assay; format: functional, cell-based; details: BGC-823, 72 h
[2] = tested on: A549; assay: Antiproliferative activity against human A549 cells assessed as reduction in cell viability incubated for 72 hrs by CCK-8 assay; format: functional, cell-based; details: A549, 72 h
[3] = tested on: HCT-116; assay: Antiproliferative activity against human HCT-116 cells assessed as reduction in cell viability incubated for 72 hrs by CCK-8 assay; format: functional, cell-based; details: HCT-116, 72 h
[4] = Cytotoxicity against human L02 cells assessed as reduction in cell viability incubated for 72 hrs by CCK-8 assay; format: toxicity, cell-based
[5] = tested on: MCF7; assay: Antiproliferative activity against human MCF7 cells assessed as reduction in cell viability incubated for 72 hrs by CCK-8 assay; format: functional, cell-based; details: MCF7, 72 h
[6] = tested on: HepG2; assay: Antiproliferative activity against human HepG2 cells assessed as reduction in cell viability incubated for 72 hrs by CCK-8 assay; format: functional, cell-based; details: HepG2, 72 h
[7] = Stability in Sprague-Dawley rat plasma assessed as parent compound remaining at 40 uM measured up to 36 hrs by HPLC analysis; format: ADME, cell-free
[8] = tested on: HepG2; assay: Induction of apoptosis in human HepG2 cells assessed as early apoptotic cells at 15 uM incubated for 24 hrs by PI and annexin V-FITC staining based flow cytometry (reference value: 2.68%); format: functional
[9] = tested on: HepG2; assay: Induction of cell cycle arrest in human HepG2 cells assessed as accumulation of cells at S phase at 1.5 uM incubated for 24 hrs by PI staining based flow cytometry analysis (reference value: 42.03%); format: functional
[10] = tested on: HepG2; assay: Induction of apoptosis in human HepG2 cells assessed as early apoptotic cells at 1.5 uM incubated for 24 hrs by PI and annexin V-FITC staining based flow cytometry (reference value: 2.68%); format: functional
[11] = tested on: HepG2; assay: Induction of apoptosis in human HepG2 cells assessed as necrotic cells at 1.5 uM incubated for 24 hrs by PI and annexin V-FITC staining based flow cytometry (reference value: 0.36%); format: functional
[12] = tested on: HepG2; assay: Induction of NO release in human HepG2 cells assessed as increase in mean fluorescence intensity at 1 to 9 uM incubated for 72 hrs by DAF-FM DA dye based fluorescence microscopic analysis; format: functional, cell-based; details: dose 1-9 µM
[13] = tested on: HepG2; assay: Induction of apoptosis in human HepG2 cells assessed as viable cells at 15 uM incubated for 24 hrs by PI and annexin V-FITC staining based flow cytometry (reference value: 93.97%); format: functional; details: read-out: Activity
[14] = Apparent permeability across apical to basolateral side in human Caco-2 cells at 2 uM measured after 2 hrs by […] dye based microplate reader analysis; format: ADME, cell-based
[15] = Acute toxicity in ICR mouse assessed as death time at 50 mg/kg, ip measured over 14 days; format: organism-based; details: in vivo, 336 h, time 14 day
[16] = tested on: HepG2; assay: Induction of NO release in human HepG2 cells assessed as increase in mean fluorescence intensity at 1 uM incubated for 72 hrs by DAF-FM DA dye based fluorescence microscopic analysis; format: functional, cell-based
[17] = Acute toxicity in ip dosed ICR mouse assessed as maximum tolerated dose measured over 14 days; format: organism-based; details: in vivo, time 14 day
[18] = Stability of the compound in PBS at pH 7.4 assessed as parent compound remaining at 40 uM measured up to 36 hrs by HPLC analysis; format: physicochemical; details: buffer, pH 7.4, 36 h
[19] = Acute toxicity in ICR mouse assessed as change in activity at less than 100 mg/kg, ip measured over 14 days; format: organism-based; details: in vivo, 336 h, time 14 day
[20] = Acute toxicity in ICR mouse assessed as change in body weight at less than 100 mg/kg, ip measured over 14 days; format: organism-based; details: in vivo, 336 h, time 14 day
[21] = tested on: HepG2; assay: Induction of apoptosis in human HepG2 cells assessed as viable cells at 7.5 uM incubated for 24 hrs by PI and annexin V-FITC staining based flow cytometry (reference value: 93.97%); format: functional; details: read-out: Activity
[22] = tested on: HepG2; assay: Induction of cell cycle arrest in human HepG2 cells assessed as accumulation of cells at S phase at 15 uM incubated for 24 hrs by PI staining based flow cytometry analysis (reference value: 42.03%); format: functional
[23] = tested on: HepG2; assay: Induction of apoptosis in human HepG2 cells assessed as late apoptotic cells at 1.5 uM incubated for 24 hrs by PI and annexin V-FITC staining based flow cytometry (reference value: 0.36%); format: functional
[24] = tested on: HepG2; assay: Induction of cell cycle arrest in human HepG2 cells assessed as accumulation of cells at G1 phase at 7.5 uM incubated for 24 hrs by PI staining based flow cytometry analysis (reference value: 42.39%); format: functional
[25] = Acute toxicity in ICR mouse assessed as abnormality in drinking at less than 100 mg/kg, ip measured over 14 days; format: organism-based; details: in vivo, 336 h, time 14 day
[26] = tested on: HepG2; assay: Induction of apoptosis in human HepG2 cells assessed as late apoptotic cells at 15 uM incubated for 24 hrs by PI and annexin V-FITC staining based flow cytometry (reference value: 0.36%); format: functional
[27] = tested on: HepG2; assay: Induction of cell cycle arrest in human HepG2 cells assessed as accumulation of cells at G2/M phase at 15 uM incubated for 24 hrs by PI staining based flow cytometry analysis (reference value: 14.58%); format: functional
[28] = tested on: HepG2; assay: Induction of cell cycle arrest in human HepG2 cells assessed as accumulation of cells at S phase at 7.5 uM incubated for 24 hrs by PI staining based flow cytometry analysis (reference value: 42.03%); format: functional
[29] = tested on: HepG2; assay: Induction of cell cycle arrest in human HepG2 cells assessed as accumulation of cells at G1 phase at 1.5 uM incubated for 24 hrs by PI staining based flow cytometry analysis (reference value: 42.39%); format: functional
[30] = tested on: HepG2; assay: Induction of apoptosis in human HepG2 cells assessed as necrotic cells at 7.5 uM incubated for 24 hrs by PI and annexin V-FITC staining based flow cytometry (reference value: 0.36%); format: functional
[31] = tested on: HepG2; assay: Induction of cell cycle arrest in human HepG2 cells assessed as accumulation of cells at G2/M phase at 7.5 uM incubated for 24 hrs by PI staining based flow cytometry analysis (reference value: 14.58%); format: functional
[32] = Acute toxicity in ICR mouse assessed as abnormality in eating at less than 100 mg/kg, ip measured over 14 days; format: organism-based; details: in vivo, 336 h, time 14 day
[33] = tested on: HepG2; assay: Induction of cell cycle arrest in human HepG2 cells assessed as accumulation of cells at G2/M phase at 1.5 uM incubated for 24 hrs by PI staining based flow cytometry analysis (reference value: 14.58%); format: functional
[34] = tested on: HepG2; assay: Induction of apoptosis in human HepG2 cells assessed as necrotic cells at 15 uM incubated for 24 hrs by PI and annexin V-FITC staining based flow cytometry (reference value: 0.36%); format: functional
[35] = tested on: HepG2; assay: Induction of apoptosis in human HepG2 cells assessed as late apoptotic cells at 7.5 uM incubated for 24 hrs by PI and annexin V-FITC staining based flow cytometry (reference value: 0.36%); format: functional
[36] = tested on: HepG2; assay: Induction of apoptosis in human HepG2 cells assessed as viable cells at 1.5 uM incubated for 24 hrs by PI and annexin V-FITC staining based flow cytometry (reference value: 93.97%); format: functional; details: read-out: Activity
[37] = tested on: HepG2; assay: Induction of NO release in human HepG2 cells assessed as increase in mean fluorescence intensity at 1.5 uM incubated for 72 hrs by DAF-FM DA dye based fluorescence microscopic analysis; format: functional, cell-based
[38] = Acute toxicity in ICR mouse assessed as death time at 10 mg/kg, ip measured over 14 days; format: organism-based; details: in vivo, 336 h, time 14 day
[39] = Apparent permeability across basolateral to apical side in human Caco-2 cells at 2 uM measured after 2 hrs by […] dye based microplate reader analysis; format: ADME, cell-based
[40] = tested on: HepG2; assay: Induction of cell cycle arrest in human HepG2 cells assessed as accumulation of cells at G1 phase at 15 uM incubated for 24 hrs by PI staining based flow cytometry analysis (reference value: 42.39%); format: functional
[41] = tested on: HepG2; assay: Induction of apoptosis in human HepG2 cells assessed as early apoptotic cells at 7.5 uM incubated for 24 hrs by PI and annexin V-FITC staining based flow cytometry (reference value: 2.68%); format: functional

O=S(=O)(c1ccccc1)c1c(OCCCCO)no[n+]1[O-]
IC50 [1]: 3.14 µM | IC50 [2]: 3.49 µM | IC50 [3]: 6.16 µM | IC50 at 72 h [4]: 17.9 µM | IC50 [5]: 4.94 µM | IC50 [6]: 4.99 µM

Br.Cc1c2c(cc[n+]1Cc1ccccc1)c1ccc(OCC(=O)OCCCCOc3no[n+]([O-])c3S(=O)(=O)c3ccccc3)cc1n2CCCc1ccccc1
Stability [7]: Stable | Activity [8]: 20.86% | Activity [9]: 40.75% | Activity [10]: 10.11% | Activity [11]: 4.44% | Activity [12]: Active | IC50 [1]: 8.68 µM | viability at 15 µM [13]: 58.3% | Papp A→B at 2 h, 2 µM [14]: < 0.05 ×10⁻⁶ cm/s | Activity [15]: Non-Toxic | Activity [16]: Active | MTD at 336 h [17]: 100 mg/kg | Stability [18]: Stable | Activity [19]: Non-Toxic | Activity [20]: Non-Toxic | viability at 7.5 µM [21]: 77.2% | IC50 [2]: 3.43 µM | Activity [22]: 36.56% | IC50 [3]: 7.77 µM | Activity [23]: 4.28% | IC50 at 72 h [4]: 10 µM | Activity [24]: 33.77% | Activity [25]: Non-Toxic | Activity [26]: 14.73% | Activity [27]: 30.22% | Activity [28]: 46.2% | Activity [29]: 40.68% | Activity [30]: 4.45% | Activity [31]: 20.03% | Activity [32]: Non-Toxic | IC50 [5]: 2.85 µM | Activity [33]: 18.57% | Activity [34]: 6.08% | Activity [35]: 5.56% | viability at 1.5 µM [36]: 81.2% | Activity [37]: Active | Activity [38]: Non-Toxic | Papp B→A at 2 h, 2 µM [39]: < 0.05 ×10⁻⁶ cm/s | Activity [40]: 33.22% | IC50 [6]: 1.79 µM | Activity [41]: 12.78%

COc1ccc2c(c1)[nH]c1c(C)nccc12 [HARMINE]
IC50 [1]: 15.6 µM | IC50 [2]: 5.23 µM | IC50 [3]: 6.94 µM | IC50 at 72 h [4]: 25.1 µM | IC50 [5]: 15.3 µM | Activity [38]: Non-Toxic | IC50 [6]: 16.8 µM

O=S(=O)(c1ccccc1)c1c(OCCCO)no[n+]1[O-]
IC50 [1]: 11.8 µM | IC50 [2]: 7.93 µM | IC50 [3]: 9.11 µM | IC50 at 72 h [4]: 21.7 µM | IC50 [5]: 7.33 µM | IC50 [6]: 6.6 µM

COc1cccc2c1C(=O)c1c(O)c3c(c(O)c1C2=O)C[C@@](O)(C(=O)CO)C[C@@H]3O[C@H]1C[C@H](N)[C@H](O)[C@H](C)O1 [DOXORUBICIN]
IC50 [1]: 0.66 µM | IC50 [2]: 1.05 µM | IC50 [3]: 0.87 µM | IC50 [5]: 0.38 µM | IC50 [6]: 0.425 µM

Cc1c2c(cc[n+]1Cc1ccccc1)c1ccc(OCC(=O)O)cc1n2CCCc1ccccc1
IC50 [1]: 37.4 µM | IC50 [2]: 52.9 µM | IC50 [3]: 40 µM | IC50 at 72 h [4]: 90.3 µM | IC50 [5]: 26.1 µM | IC50 [6]: 113 µM
